Results reported in PubChem BioAssay AID248 (DTP/NCI, 2004).
Where “and” joins values, the source holds several entries; their conditions need not be identical. Equal entries are not always repeated. Inconclusive results and toxic doses are left out. No stated cut-off is given here; in the data, active means T/C of 150% or more; inactive means T/C below 125%.

Test system: L1210 leukemia ip in BDF1 mice, survival T/C
Test: NCI In Vivo Anticancer Drug Screen. Data for tumor model L1210 Leukemia (intraperitoneal) in B6D2F1 (BDF1) mice
Settings: endpoint: mean survival time, higher = longer survival
How it was run: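 Antitumor effect is assessed in tumor-bearing animals. Survival in the compound arm is compared with a vehicle-dosed control arm and expressed as their quotient.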

[1] = dose: 50.0 mg/kg/injection, schedule: Q04DX002 (ip), vehicle: saline
[2] = dose: 100.0 mg/kg/injection, schedule: Q04DX002 (ip), vehicle: saline
[3] = dose: 200.0 mg/kg/injection, schedule: Q04DX002 (ip), vehicle: saline
[4] = dose: 100.0 mg/kg/injection, schedule: Q04DX003 (ip), vehicle: Klucel (hydroxypropylcellulose) (HPC)
[5] = dose: 200.0 mg/kg/injection, schedule: Q04DX003 (ip), vehicle: Klucel (hydroxypropylcellulose) (HPC)
[6] = dose: 400.0 mg/kg/injection, schedule: Q04DX003 (ip), vehicle: Klucel (hydroxypropylcellulose) (HPC)
[7] = dose: 100.0 mg/kg/injection, schedule: Q01DX001 (ip), vehicle: saline
[8] = dose: 200.0 mg/kg/injection, schedule: Q01DX001 (ip), vehicle: saline
[9] = dose: 400.0 mg/kg/injection, schedule: Q01DX001 (ip), vehicle: saline
[10] = dose: 100.0 mg/kg/injection, schedule: Q01DX009 (ip), vehicle: saline with Tween-80
[11] = dose: 200.0 mg/kg/injection, schedule: Q01DX009 (ip), vehicle: saline with Tween-80

Measured: T/C

CCCCCCC1CCC(O)C1CCCCCCC(=O)O (centres undefined)
inactive: [1] 98 % of control | [2] 91 % of control | [3] 91 % of control

CC(=O)Nc1ccc(C)c(NC(C)=O)c1
inactive: [4] 96 % of control | [5] 96 % of control | [6] 96 % of control

CN(C)/C(N)=N/S(=O)(=O)c1ccc(C#N)cc1
inactive: [7] 88 % of control | [8] 96 % of control | [9] 94 % of control

COc1cc(-c2nc(CCl)no2)cc(OC)c1OC
inactive: dose: 100.0 mg/kg/injection, schedule: Q04DX002 (ip), vehicle: Klucel (hydroxypropylcellulose) (HPC) 95 % of control | dose: 200.0 mg/kg/injection, schedule: Q04DX002 (ip), vehicle: Klucel (hydroxypropylcellulose) (HPC) 104 % of control | dose: 400.0 mg/kg/injection, schedule: Q04DX002 (ip), vehicle: Klucel (hydroxypropylcellulose) (HPC) 104 % of control

CC(=O)Nc1ccc(Cc2[nH]c(=O)[nH]c(=O)c2Br)cc1
inactive: dose: 100.0 mg/kg/injection, schedule: Q01DX001 (ip), vehicle: Klucel (hydroxypropylcellulose) (HPC) 93 % of control | dose: 200.0 mg/kg/injection, schedule: Q01DX001 (ip), vehicle: Klucel (hydroxypropylcellulose) (HPC) 93 % of control

CCCCCCCCCCC(=O)OCC#CC#CCOC(=O)CCCCCCCCCC
inactive: dose: 100.0 mg/kg/injection, schedule: Q01DX009 (ip), vehicle: Klucel (hydroxypropylcellulose) (HPC) 97 % of control | [4] 103 % of control | dose: 200.0 mg/kg/injection, schedule: Q01DX009 (ip), vehicle: Klucel (hydroxypropylcellulose) (HPC) 98 % of control | [5] 92 % of control | dose: 400.0 mg/kg/injection, schedule: Q01DX009 (ip), vehicle: Klucel (hydroxypropylcellulose) (HPC) 101 % of control | [6] 91 % of control

CCNC(=O)c1cc(NC(=O)c2ccc(C(=O)Nc3cc(C(=O)NCC)cc(C4=NCCN4)c3)cc2)cc(C2=NCCN2)c1
inactive: dose: 14.25 mg/kg/injection, schedule: Q01DX015 (ip), vehicle: water 101 % of control | dose: 28.5 mg/kg/injection, schedule: Q01DX015 (ip), vehicle: water 98 % of control | dose: 57.0 mg/kg/injection, schedule: Q01DX015 (ip), vehicle: water 116 % of control

CCCCNc1nnnn1CCCC
inactive: dose: 100.0 mg/kg/injection, schedule: Q04DX003 (ip), vehicle: acetone 98 % of control | dose: 200.0 mg/kg/injection, schedule: Q04DX003 (ip), vehicle: acetone 96 % of control

COC1C(=O)CCC2(CO2)C1(O)C1(C)OC1CC=C(C)C (centres undefined)
inactive: dose: 50.0 mg/kg/injection, schedule: Q01DX009 (ip), vehicle: saline with Tween-80 104 % of control | [10] 109 % of control | dose: 100.0 mg/kg/injection, schedule: Q04DX003 (ip), vehicle: saline 106 % of control | [11] 87 % of control | dose: 200.0 mg/kg/injection, schedule: Q04DX003 (ip), vehicle: saline 100 % of control

OCC(CO)=C1c2ccccc2-c2ccccc21
inactive: dose: 100.0 mg/kg/injection, schedule: Q## X003 (ip), vehicle: acetone 102 % of control | dose: 200.0 mg/kg/injection, schedule: Q## X003 (ip), vehicle: acetone 101 % of control | dose: 400.0 mg/kg/injection, schedule: Q## X003 (ip), vehicle: acetone 104 % of control

CCc1cccc(CC)c1N1C(=O)C=CC1=O
inactive: dose: 1.56 mg/kg/injection, schedule: Q01DX009 (ip), vehicle: other 102 % of control | dose: 3.13 mg/kg/injection, schedule: Q01DX009 (ip), vehicle: other 105 % of control | dose: 3.13 mg/kg/injection, schedule: Q04DX002 (ip), vehicle: other 87 % of control | dose: 6.25 mg/kg/injection, schedule: Q01DX009 (ip), vehicle: other 105 % of control | dose: 6.25 mg/kg/injection, schedule: Q04DX002 (ip), vehicle: other 93 % of control | dose: 12.5 mg/kg/injection, schedule: Q04DX002 (ip), vehicle: other 107 % of control

CC[N+]1(CC)CC[N+](CC)(CC)CC1 (tested in a mixture with another compound)
inactive: [2] 102 % of control | [3] 97 % of control | dose: 400.0 mg/kg/injection, schedule: Q04DX002 (ip), vehicle: saline 102 % of control

COc1ccc2c3c1OC1c4[nH]ncc4CC4C(C2)N(C)CCC314 (centres undefined)
inactive: [4] 104 % of control | [5] 93 % of control | [6] 106 % of control

O=CC(O)C(O)C(OC1OC(CO)C(O)C(O)C1O)C(O)CO (centres undefined)
inactive: dose: 100.0 mg/kg/injection, schedule: Q04DX002 (ip), vehicle: carboxymethylcellulose (CMC) 93 % of control and 117 % of control | dose: 100.0 mg/kg/injection, schedule: Q04DX003 (ip), vehicle: carboxymethylcellulose (CMC) 99 % of control | dose: 200.0 mg/kg/injection, schedule: Q04DX002 (ip), vehicle: carboxymethylcellulose (CMC) 93 % of control and 92 % of control | dose: 200.0 mg/kg/injection, schedule: Q04DX003 (ip), vehicle: carboxymethylcellulose (CMC) 96 % of control | dose: 400.0 mg/kg/injection, schedule: Q04DX002 (ip), vehicle: carboxymethylcellulose (CMC) 100 % of control and 86 % of control | dose: 400.0 mg/kg/injection, schedule: Q04DX003 (ip), vehicle: carboxymethylcellulose (CMC) 87 % of control

OC/C(=C\c1ccccc1)c1ccccc1
inactive: dose: 100.0 mg/kg/injection, schedule: Q04DX003 (ip), vehicle: saline with Tween-80 92 % of control | dose: 200.0 mg/kg/injection, schedule: Q04DX003 (ip), vehicle: saline with Tween-80 94 % of control | dose: 400.0 mg/kg/injection, schedule: Q04DX003 (ip), vehicle: saline with Tween-80 92 % of control

O=C1C(OCc2ccccc2)=C(OCc2ccccc2)C(=O)c2ccccc21
inactive: dose: 75.0 mg/kg/injection, schedule: Q01DX001 (ip), vehicle: acetone 91 % of control | dose: 150.0 mg/kg/injection, schedule: Q01DX001 (ip), vehicle: acetone 94 % of control | dose: 300.0 mg/kg/injection, schedule: Q01DX001 (ip), vehicle: acetone 90 % of control

O=C(O)/C(=C\c1cc2c(cc1[N+](=O)[O-])OCO2)c1cc2c(cc1Br)OCO2
inactive: dose: 50.0 mg/kg/injection, schedule: Q01DX001 (ip), vehicle: carboxymethylcellulose (CMC) 97 % of control | dose: 100.0 mg/kg/injection, schedule: Q01DX001 (ip), vehicle: carboxymethylcellulose (CMC) 100 % of control | dose: 200.0 mg/kg/injection, schedule: Q01DX001 (ip), vehicle: carboxymethylcellulose (CMC) 103 % of control | dose: 400.0 mg/kg/injection, schedule: Q01DX001 (ip), vehicle: carboxymethylcellulose (CMC) 92 % of control

CC1CCCN(C(=O)Nc2cccc(C(F)(F)F)c2)C1 (centres undefined)
inactive: dose: 100.0 mg/kg/injection, schedule: Q01DX009 (ip), vehicle: gum acacia 100 % of control | dose: 200.0 mg/kg/injection, schedule: Q01DX009 (ip), vehicle: gum acacia 110 % of control | dose: 400.0 mg/kg/injection, schedule: Q01DX009 (ip), vehicle: gum acacia 99 % of control

CCCCNCCC[P+](c1ccccc1)(c1ccccc1)c1ccccc1
inactive: dose: 25.0 mg/kg/injection, schedule: Q04DX002 (ip), vehicle: saline 115 % of control | [1] 98 % of control | [2] 105 % of control

CC(=O)CCC1(C)OC(=O)C(C)C2C1CCC1(C)C(=O)CCC21 (centres undefined)
inactive: dose: 50.0 mg/kg/injection, schedule: Q01DX001 (sc), vehicle: steriod suspending solution 101 % of control | dose: 100.0 mg/kg/injection, schedule: Q01DX001 (sc), vehicle: steriod suspending solution 103 % of control | dose: 200.0 mg/kg/injection, schedule: Q01DX001 (sc), vehicle: steriod suspending solution 113 % of control | dose: 400.0 mg/kg/injection, schedule: Q01DX001 (sc), vehicle: steriod suspending solution 101 % of control

Nc1ccc2c(c1[N+](=O)[O-])C(=O)c1ccccc1C2=O
inactive: [7] 92 % of control | [8] 95 % of control | [9] 97 % of control

COc1ccc(C)cc1NC(=O)SCCSC(=O)Nc1cc(C)ccc1OC
inactive: [10] 100 % of control | [11] 87 % of control

c1ccc(-c2cnnn2-c2ccccc2)cc1
inactive: dose: 100.0 mg/kg/injection, schedule: Q01DX001 (ip), vehicle: saline with Tween-80 105 % of control | dose: 200.0 mg/kg/injection, schedule: Q01DX001 (ip), vehicle: saline with Tween-80 100 % of control | dose: 400.0 mg/kg/injection, schedule: Q01DX001 (ip), vehicle: saline with Tween-80 105 % of control
